# Data published in publication PMC13128454, “Mutant p53 protein accumulation is selectively targetable by proximity-inducing drugs” (Nature Chemical Biology, 2025).
# “And” between values parts separate entries of the source, which are not always exact repeats. Equal values may be shown once. Read-outs that look alike come from different tables or passages of the source.
# Columns and labels:
# Type in all cases: cell-based
# [1] = system: Calu-1 cells stably expressing Halo–p53-R273H (FL)–mCherry versus parental Calu-1 cells; assay: flow-cytometry growth competition; conditions: 7 days
# Method: (§1) Cells with and without a fluorescent marker (for example, Halo–p53–mCherry) were mixed and the resulting solution was plated in six-well plates or 10-cm dishes at low density; compound was added at varying concentrations. After reaching confluence, cells were passaged and retreated with compound if needed. Otherwise, cells were trypsinized, washed and resuspended in complete growth medium in 96-well plates or tubes for flow cytometry. Untreated cell mixtures were used to establish gates separating the fluorophore^+/− populations. Analysis was conducted on a CytoFLEX LX flow cytometer.
# [2] = system: Halo–p53-Y220C ΔTAD–mCherry 293T cells versus parental 293T cells; assay: flow-cytometry growth competition; conditions: for EC50: Homo sapiens, HEK-293T; for normalized_mCherry_percentage: Y220C, day 8, normalized to DMSO
# Method: as §1
# [3] = system: MFE319 cells stably expressing sgTP53–Cas9–EGFP versus parental MFE319 cells; assay: flow-cytometry growth competition
# Method: as §1
# [4] = system: Halo–p53-Y220C ΔTAD–mCherry 293T cells; assay: cell-cycle analysis (DNA content, DAPI flow cytometry); set-up: 4N / 8N / Right_of_Gate1 (replicates) / Right_of_Gate2 (replicates) / 2N: unit not given here; conditions: 1 day; for 2N / 4N / 8N / Right_of_Gate1 (replicates) / Right_of_Gate2 (replicates): Y220C
# Method: (§2) Cells were split into a 10-cm dish at low confluency (20%) and grown overnight. Cells were synchronized using overnight treatment with palbociclib (150 nM), washed and split into a six-well plate for treatment with compound for 24 h. Cells were harvested by trypsinization, washed twice with cold 1× PBS, fixed by dropwise addition of ice-cold 70% ethanol while vortexing and incubated overnight (4 °C). Fixed samples were centrifuged at 1,000g for 5 min and 70% ethanol was removed. Cells were washed twice with 1× PBS + 1% BSA before DNA labeling with 1 µg ml^−1 DAPI for 10 min at room temperature, before being analyzed for DNA content by flow cytometry (Beckman CytoFLEX LX).
# [5] = system: parental 293T cells; assay: as above; conditions: 1 day; for 2N / 4N / Right_of_Gate1 (replicates) / Right_of_Gate2 (replicates): WT
# Method: as §2
# [6] = CellTiter-Glo cell viability; conditions: human, BxPC-3 cells, BXPC3, 4 day, read-out: mean_norm (normalized viability)
# Method: (§3) Cells were plated in 384-well plates (typically 1,500 cells per well) with varying concentrations of compounds, with a total volume of 50 μl per well. CTG reagent was added (25 μl) to the solutions, mixed and read out using an EnVision 2105 multimode plate reader.
# [7] = viability with doxycycline-inducible construct; conditions: human, dox 0, read-out: mean_norm (normalized viability)
# Method: as §3
# [8] = system: 293T cells expressing a dox inducible Halo–p53-Y220C ΔTAD–mCherry; assay: viability with doxycycline-inducible construct
# Method: as §3
# [9] = Conc 0.38 (unit not given; p53-01 in μM, BI2536 in nM)
# [10] = Conc 0.75 (unit not given; p53-01 in μM, BI2536 in nM)
# [11] = Conc 1.50 (unit not given; p53-01 in μM, BI2536 in nM)
structure (smiles),measurement,setting,value
"CC[C@@H]1C(=O)N(C)c2cnc(Nc3ccc(C(=O)NCCOCCOCCOCCOCCC(=O)N4CCC(Nc5cccc6c5cc(C#CCNc5ccc(S(C)(=O)=O)cc5OC)n6CC(F)(F)F)CC4)cc3OC)nc2N1C1CCCC1 [p53-01, PMV6-PEG4-BI2536]",activity in competition,[1],did not observe any activity
same,mCherry_percent,"[2]; 1 uM, 8 days, untreated 39.76",6.93%
same,"Emax, decline in the mCherry^+ fraction",[2]; 8-day competition,21.5 fold
same,EC50,"[2]; 192 h, 8-day competition, read-out: EC50 growth competition",443 nM
same,EC50,"[2]; 240 h, growth competition analyzed on day 10, n = 3, read-out: Competition EC50",850 nM
same,normalized_mCherry_percentage,[2]; 62.5 nM,97.27%
same,normalized_mCherry_percentage,[2]; 125 nM,95.36%
same,normalized_mCherry_percentage,[2]; 250 nM,82.43%
same,normalized_mCherry_percentage,[2]; 500 nM,42.51%
same,normalized_mCherry_percentage,[2]; 1 uM,16.67%
same,normalized_mCherry_percentage,[2]; 2 uM,4.655%
same,selection in growth competition,"[2]; dosed between 250 nM and 2 μM, 8-day",strong selection against p53-Y220C^+ cells
same,"mCherry^+ percentage in competition, replicate","[2]; p53-01 250 nM, untreated 28.89, 29.94, 29.02",3.07 and 3.6 and 3.2
same,decline in mCherry^+ percentage,[2]; p53-01 alone at 250 nM,8.9 fold
same,"merge_avg (growth competition, sheet 4H)",[3]; Concentration (pM) 156250,0.9416
same,"merge_avg (growth competition, sheet 4H)",[3]; Concentration (pM) 312500,0.9268
same,"merge_avg (growth competition, sheet 4H)",[3]; Concentration (pM) 600000,0.9517
same,"merge_avg (growth competition, sheet 4H)",[3]; Concentration (pM) 800000,1.131
same,"merge_avg (growth competition, sheet 4H)",[3]; Concentration (pM) 1000000,1.205
same,"merge_avg (growth competition, sheet 4H)",[3]; Concentration (pM) 1100000,1.344
same,"merge_avg (growth competition, sheet 4H)",[3]; Concentration (pM) 1250000,1.624
same,enrichment of EGFP^+ (TP53-knockout) population,"[3]; day 9, p53-01 at doses between 800 nM and 1.25 μM",significantly enrich an EGFP^+ population
same,DNA content,"[4]; 0.75 μM, synchronized cells",accumulation of Halo–p53-Y220C ΔTAD–mCherry 293T cells with 4 N DNA content
same,cells with genome doubling (8 N DNA content),[4]; 1.5 μM,~ 60%
same,2N,[4]; [9],58.97
same,4N,[4]; [9],39.03
same,8N,[4]; [9],2.00
same,Right_of_Gate1 (replicates),[4]; [9],41.03 and 37.34 and 37.12
same,Right_of_Gate2 (replicates),[4]; [9],2.00 and 2.08 and 2.06
same,2N,[4]; [10],39.09
same,4N,[4]; [10],57.44
same,8N,[4]; [10],3.47
same,Right_of_Gate1 (replicates),[4]; [10],60.91 and 56.52 and 59.94
same,Right_of_Gate2 (replicates),[4]; [10],3.47 and 3.35 and 3.58
same,2N,[4]; [11],1.94
same,4N,[4]; [11],38.53
same,8N,[4]; [11],59.53
same,Right_of_Gate1 (replicates),[4]; [11],98.06 (2×) and 98.33
same,Right_of_Gate2 (replicates),[4]; [11],59.53 and 59.10 and 58.35
same,DNA content,"[5]; 0.75 μM, synchronized cells",unaffected
same,2N,[5]; [9],59.15
same,4N,[5]; [9],37.20
same,Right_of_Gate1 (replicates),[5]; [9],40.85 and 40.98 and 41.52
same,Right_of_Gate2 (replicates),[5]; [9],3.65 and 3.77 and 3.58
same,2N,[5]; [10],59.00
same,4N,[5]; [10],37.55
same,Right_of_Gate1 (replicates),[5]; [10],41.00 and 43.44 and 43.05
same,Right_of_Gate2 (replicates),[5]; [10],3.45 and 3.41 and 3.53
same,2N,[5]; [11],35.77
same,4N,[5]; [11],52.80
same,Right_of_Gate1 (replicates),[5]; [11],64.23 and 64.42 and 63.80
same,Right_of_Gate2 (replicates),[5]; [11],11.43 and 12.05 and 12.32
same,viability at 4 day,[6]; Concentration 39.0625,96%
same,viability at 4 day,[6]; Concentration 78.125,94.9%
same,viability at 4 day,[6]; Concentration 156.25,99%
same,viability at 4 day,[6]; Concentration 312.5,91%
same,viability at 4 day,[6]; Concentration 10000,44%
same,viability at 4 day,[6]; Concentration 20000,25.6%
same,viability,[7]; Concentration 156.25,99.3%
same,viability,[7]; Concentration 312.5,95.6%
same,viability,[7]; Concentration 625,95.7%
same,viability,[7]; Concentration 1250,95.8%
same,viability,[7]; Concentration 2500,77.5%
same,viability,[7]; Concentration 5000,60.1%
same,change of potency upon doxycycline induction,"[8]; dox 0, 100, 1000 ng/mL, 4 days",approximately twofold
same,mean_norm (normalized viability),"[8]; dox 0, Concentration 39.0625",0.9911
same,mean_norm (normalized viability),"[8]; dox 0, Concentration 78.125",0.9922
same,mean_norm (normalized viability),"[8]; dox 0, Concentration 10000",0.4681
same,mean_norm (normalized viability),"[8]; dox 100, Concentration 39.0625",0.9915
same,mean_norm (normalized viability),"[8]; dox 100, Concentration 78.125",1.002
same,mean_norm (normalized viability),"[8]; dox 100, Concentration 156.25",0.9543
same,mean_norm (normalized viability),"[8]; dox 100, Concentration 312.5",0.9412
same,mean_norm (normalized viability),"[8]; dox 100, Concentration 625",0.8872
same,mean_norm (normalized viability),"[8]; dox 100, Concentration 1250",0.7055
same,mean_norm (normalized viability),"[8]; dox 100, Concentration 2500",0.6021
same,mean_norm (normalized viability),"[8]; dox 100, Concentration 5000",0.3858
same,mean_norm (normalized viability),"[8]; dox 100, Concentration 10000",0.3055
same,mean_norm (normalized viability),"[8]; dox 1000, Concentration 39.0625",0.9926
same,mean_norm (normalized viability),"[8]; dox 1000, Concentration 78.125",1.004
same,mean_norm (normalized viability),"[8]; dox 1000, Concentration 156.25",1.0052
same,mean_norm (normalized viability),"[8]; dox 1000, Concentration 312.5",0.8955
same,mean_norm (normalized viability),"[8]; dox 1000, Concentration 625",0.8604
same,mean_norm (normalized viability),"[8]; dox 1000, Concentration 1250",0.7628
same,mean_norm (normalized viability),"[8]; dox 1000, Concentration 2500",0.5571
same,mean_norm (normalized viability),"[8]; dox 1000, Concentration 5000",0.3298
same,mean_norm (normalized viability),"[8]; dox 1000, Concentration 10000",0.194
